This passage reports Ki results from patent US20130225583A1, “SUBSTITUTED AMINO-TRIAZOLYL PDE10 INHIBITORS” (priority 2010, published 2013).

Bounds are passed on as bounds.

The target of this assay is T1, human PDE10A2 (Homo sapiens, UniProt Q9Y233).
T1 construct: made in house; host or cells: AD293 cells, transiently transfected; The cytosolic supernatant of the lysate served as the enzyme
T1 sequence (Q9Y233 267-1055): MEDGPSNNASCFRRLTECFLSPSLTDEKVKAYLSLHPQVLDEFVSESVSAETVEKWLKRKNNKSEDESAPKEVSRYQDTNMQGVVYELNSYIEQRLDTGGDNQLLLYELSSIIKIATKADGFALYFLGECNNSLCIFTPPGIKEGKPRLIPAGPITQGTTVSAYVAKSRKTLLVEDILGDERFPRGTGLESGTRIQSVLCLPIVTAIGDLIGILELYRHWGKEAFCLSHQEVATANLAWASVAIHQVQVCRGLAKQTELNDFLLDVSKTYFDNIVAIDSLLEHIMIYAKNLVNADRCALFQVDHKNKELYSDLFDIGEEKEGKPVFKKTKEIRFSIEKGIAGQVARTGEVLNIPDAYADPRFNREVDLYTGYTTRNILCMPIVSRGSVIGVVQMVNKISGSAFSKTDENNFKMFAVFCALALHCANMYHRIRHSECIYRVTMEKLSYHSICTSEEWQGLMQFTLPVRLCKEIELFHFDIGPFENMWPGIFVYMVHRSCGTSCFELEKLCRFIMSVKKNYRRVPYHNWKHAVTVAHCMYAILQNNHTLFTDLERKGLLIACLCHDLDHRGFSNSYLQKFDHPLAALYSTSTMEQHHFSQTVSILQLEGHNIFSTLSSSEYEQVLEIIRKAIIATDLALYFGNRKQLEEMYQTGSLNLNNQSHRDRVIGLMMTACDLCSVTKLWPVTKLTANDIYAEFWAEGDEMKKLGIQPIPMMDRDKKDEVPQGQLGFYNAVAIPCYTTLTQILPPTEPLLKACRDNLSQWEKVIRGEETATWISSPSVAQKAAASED
As to the kind of experiment: PDE10 fluorescence polarization (IMAP FP) inhibition assay. Format: biochemical. The following applies: apparent inhibition constant; FAM-labeled cAMP 50 nM; lysate of AD293 cells transfected with human PDE10A2; room temperature; read-out: PDE10a Ki. As for the experimental part:
The activity of the compounds in accordance with the present invention as PDE10 inhibitors may be readily determined without undue experimentation using a fluorescence polarization (FP) methodology that is well known in the art (Huang, W., et al., J. Biomol Screen, 2002, 7: 215).
In a typical experiment the PDE 10 inhibitory activity of the compounds of the present invention was determined in accordance with the following experimental method. PDE 10A2 was amplified from human fetal brain cDNA (Clontech, Mountain View, Calif.) using a forward primer corresponding to nucleotides 56-77 of human PDE10A2 (Accession No. AF127480, Genbank Identifier 4894716), containing a Kozak consensus sequence, and a reverse primer corresponding to nucleotides 2406-2413 of human PDE10A2 (Accession No. AF127480, Genbank Identifier 4894716). Amplification with Easy-A polymerase (Stratagene, La Jolla, Calif.) was 95° C. for 2 minutes followed by thirty three cycles of 95° C. for 40 seconds, 55° C. for 30 seconds, and 72° C. for 2 minutes 48 seconds. Final extension was 72° C. for 7 minutes. The PCR product was TA cloned into pcDNA3.2-TOPO (Invitrogen, Carlsbad, Calif.) according to standard protocol. AD293 cells with 70-80% confluency were transiently transfected with human PDE10A2/pcDNA3.2-TOPO using Lipofectamine 2000 according to manufacturer specifications (Invitrogen, Carlsbad, Calif.). Cells were harvested 48 hours post-transfection and lysed by sonication (setting 3, 10×5 sec pulses) in a buffer containing 20 mM HEPES, 1 mM EDTA and protease inhibitor cocktail (Roche). Lysate was collected by centrifugation at 75,000×g for 20 minutes. Supernatant containing the cytoplasmic fraction was used for evaluation of PDE10A2 activity. The fluorescence polarization assay for cyclic nucleotide phosphodiesterases was performed using an IMAP® FP kit supplied by Molecular Devices, Sunnyvale, Calif. (product # R8139). IMAP® technology has been applied previously to phosphodiesterase assays (Huang, W., et al., J. Biomol Screen, 2002, 7: 215). Assays were performed at room temperature in 384-well microtiter plates with an incubation volume of 20.2 μL. Solutions of test compounds were prepared in DMSO and serially diluted with DMSO to yield 8 μL of each of 10 solutions differing by 3-fold in concentration, at 32 serial dilutions per plate. 100% inhibition is determined using a known PDE 10 inhibitor, which can be any compound that is present at 5,000 times its Ki value in the assay described as follows, such as papaverine (see Siuciak, et al. Neuropharmacology (2006) 51:386-396; Becker, et al. Behav Brain Res (2008) 186(2):155-60; Threlfell, et al., J Pharmacol Exp Ther (2009) 328(3):785-795), 2-{4-[pyridin-4-yl-1-(2,2,2-trifluoroethyl)-1H-pyrazol-3-yl]phenoxymethyl}quinoline succinic acid or 2-[4-(1-methyl-4-pyridin-4-yl-1H-pyrazol-3-yl)-phenoxymethyl]quinoline succinic acid (see Schmidt, et al. J Pharmacol Exp Ther (2008) 325:681-690; Threlfell, et al., J Pharmacol Exp Ther (2009) 328(3): 785-795). 0% of inhibition is determined by using DMSO (1% final concentrations). A Labcyte Echo 555 (Labcyte, Sunnyvale, Calif.) is used to dispense 200 nL from each well of the titration plate to the 384 well assay plate. A solution of enzyme ( 1/7000 dilution from aliquots; sufficient to produce 20% substrate conversion) and a separate solution of FAM-labeled cAMP PDE from Molecular Devices (product # R7506), at a final concentration of 50 nM are made in the assay buffer (10 mM Tris HCl, pH 7.2, 10 mM MgCl2, 0.05% NaN3 0.01% Tween-20, and 1 mM DTT). The enzyme is added to the assay plates by the addition of 10 μL of enzyme solution to each well, shaken to mix and incubated at room temperature for 60 minutes. The substrate is then added to the assay plates by the addition of 10 μL of substrate solution to each well, shaken to mix, and incubated at room temperature for 60 minutes. […]
(In general: Fluorescence polarisation rises when a labelled molecule tumbles more slowly, as on binding a larger partner.)
As for `COc1ccc(Cc2nc(N)nn2-c2cc(=O)n(CC3CCC3)cn2)cc1OC` [1-70, 6-(3-amino-5-(3,4-dimethoxybenzyl)-1H-1,2,4-triazol-1-yl)-3-(cyclobutylmethyl)pyrimidin-4(3H)-one], the Ki was found to be 640 nM. With `COc1ccc(Cc2nc(N)nn2-c2cc(C)cc(C)c2)cc1OC` [1-17, 5-(3,4-dimethoxybenzyl)-1-(3,5-dimethylphenyl)-1H-1,2,4-triazol-3-amine] the figure was 101 nM.

For `COc1ccc(Cc2nc(N)nn2-c2cc(OCCN3CCNC3=O)ncn2)cc1OC` [1-44, 1-(2-(6-(3-amino-5-(3,4-dimethoxybenzyl)-1H-1,2,4-triazol-1-yl)pyrimidin-4-yloxy)ethyl)imidazolidin-2-one], the Ki amounted to 18 nM. Take `COc1ccc(Cc2nc(N)nn2-c2cc(=O)n(C(C)C)cn2)cc1OC` [1-69, 6-(3-amino-5-(3,4-dimethoxybenzyl)-1H-1,2,4-triazol-1-yl)-3-isopropylpyrimidin-4(3H)-one]: the Ki turned out to be 540 nM. With `CCCn1cnc(-n2nc(N)nc2Cc2ccc(OC)c(OC)c2)cc1=O` [1-71, 6-(3-amino-5-(3,4-dimethoxybenzyl)-1H-1,2,4-triazol-1-yl)-3-propylpyrimidin-4(3H)-one] the figure was 620 nM; with `COc1ccc(Cc2nc(N)nn2-c2cc(OCc3nc4ccccc4[nH]3)ncn2)cc1OC` [1-40, 1-(6-((1H-benzo[d]imidazol-2-yl)methoxy)pyrimidin-4-yl)-5-(3,4-dimethoxybenzyl)-1H-1,2,4-triazol-3-amine], 19 nM. Take `COc1ccc(Cc2nc(N)nn2-c2cc(OCc3ccc(-c4ccncc4)cc3)ncn2)cc1OC` [1-42, 5-(3,4-dimethoxybenzyl)-1-(6-(4-(pyridin-4-yl)benzyloxy)pyrimidin-4-yl)-1H-1,2,4-triazol-3-amine]: the Ki worked out at 270 nM.

As to `COc1ccc(Cc2nc(N)nn2-c2cc(OCc3ccc4ccccc4c3)ncn2)cc1OC` [1-38, 5-(3,4-dimethoxybenzyl)-1-(6-(naphthalen-2-ylmethoxy)pyrimidin-4-yl)-1H-1,2,4-triazol-3-amine], the Ki was determined as 54 nM. The figure for `COc1ccc(Cc2nc(N)nn2-c2cc(OCC3CC3c3ccccc3)ncn2)cc1OC` (stereo not drawn) [1-67, 5-(3,4-dimethoxybenzyl)-1-(6-((2-phenylcyclopropyl)methoxy)pyrimidin-4-yl)-1H-1,2,4-triazol-3-amine] is 320 nM; for `CCCOc1cc(-n2nc(N)nc2Cc2ccc(OC)c(OC)c2)ncn1` [1-63, 5-(3,4-dimethoxybenzyl)-1-(6-propoxypyrimidin-4-yl)-1H-1,2,4-triazol-3-amine] it is 35 nM; for `COc1ccc(CNc2nc(Cc3ccc(OC)c(OC)c3)n(-c3cc(Oc4cccnc4)nc(C)n3)n2)cc1` [1-77, 5-(3,4-dimethoxybenzyl)-N-(4-methoxybenzyl)-1-(2-methyl-6-(pyridin-3-yloxy)pyrimidin-4-yl)-1H-1,2,4-triazol-3-amine] it is 1000 nM.

In the case of `COc1ccc(Cc2nc(N)nn2-c2cc(=O)n(Cc3ccc(-c4ccncc4)cc3)cn2)cc1OC` [1-56, 6-(3-amino-5-(3,4-dimethoxybenzyl)-1H-1,2,4-triazol-1-yl)-3-(4-(pyridin-4-yl)benzyl)pyrimidin-4(3H)-one], the Ki came out at 540 nM. With `COc1ccc(Cc2nc(N)nn2-c2cc(OCC(C)(C)C)ncn2)cc1OC` [1-64, 5-(3,4-dimethoxybenzyl)-1-(6-(neopentyloxy)pyrimidin-4-yl)-1H-1,2,4-triazol-3-amine] the figure was 13 nM.

On to `COc1ccc(CNc2nc(Cc3ccc(OC)c(OC)c3)n(-c3ccccc3)n2)cc1` [1-10, 5-(3,4-dimethoxybenzyl)-N-(4-methoxybenzyl)-1-phenyl-1H-1,2,4-triazol-3-amine], for which the Ki stood at 146 nM. With `COc1ccc(Cc2nc(N)nn2-c2cc(OC(C)C)ncn2)cc1OC` [1-60, 5-(3,4-dimethoxybenzyl)-1-(6-isopropoxypyrimidin-4-yl)-1H-1,2,4-triazol-3-amine] the figure was 370 nM; with `COc1ccc(Cc2nc(N)nn2-c2cc(=O)n(Cc3cnc(N4CCNCC4)cn3)cn2)cc1OC` [1-58, 6-(3-amino-5-(3,4-dimethoxybenzyl)-1H-1,2,4-triazol-1-yl)-3-((5-(piperazin-1-yl)pyrazin-2-yl)methyl)pyrimidin-4(3H)-one], 37 nM; with `COc1ccc(Cc2nc(N)nn2-c2cc(OCc3ccc4ccccc4n3)ncn2)cc1OC` [1-68, 5-(3,4-dimethoxybenzyl)-1-(6-(quinolin-2-ylmethoxy)pyrimidin-4-yl)-1H-1,2,4-triazol-3-amine], 760 nM.

As to `COc1ccc(Cc2nc(N)nn2-c2ccc(Cl)c(Cl)c2)cc1OC` [1-16, 1-(3,4-dichlorophenyl)-5-(3,4-dimethoxybenzyl)-1H-1,2,4-triazol-3-amine], the Ki was found to be 153 nM. With `COc1ccc(Cc2nc(N)nn2-c2cc(OCc3cn4ccccc4n3)ncn2)cc1OC` [1-41, 5-(3,4-dimethoxybenzyl)-1-(6-(imidazo[1,2-a]pyridin-2-ylmethoxy)pyrimidin-4-yl)-1H-1,2,4-triazol-3-amine] the figure was 180 nM; with `COc1ccc(Cc2nc(N)nn2-c2cc(=O)n(Cc3ccccn3)cn2)cc1OC` [1-49, 6-(3-amino-5-(3,4-dimethoxybenzyl)-1H-1,2,4-triazol-1-yl)-3-(pyridin-2-ylmethyl)pyrimidin-4(3H)-one], less than 3.8 nM.

For the compound `COc1ccc(Cc2nc(N)nn2-c2cc(=O)n(Cc3ccc4ccccc4n3)cn2)cc1OC` [1-75, 6-(3-amino-5-(3,4-dimethoxybenzyl)-1H-1,2,4-triazol-1-yl)-3-(quinolin-2-ylmethyl)pyrimidin-4(3H)-one], the Ki stood at 64 nM.
